These results are taken from PMC6149971, “In Vivo and In Vitro Activities and ADME-Tox Profile of a Quinolizidine-Modified 4-Aminoquinoline: A Potent Anti-P. falciparum and Anti-P. vivax Blood-Stage Antimalarial” (Molecules : A Journal of Synthetic Chemistry and Natural …, 2017).

Series [1] in a line: Microsome stability and metabolism studies, rat. The series is classed as in vitro ADME. On the set-up: key: +: Metabolic Products Detected In Vitro and In Vivo; ND: Not detectable. The conditions noted are these: (−)-AM1 1 μM, at 30 min. Here is the method:
(§1) Samples from the metabolic stability and metabolism studies were analyzed under the following conditions: UPLC interfaced with a Premiere XE triple Quadrupole Waters for stability studies, and Bruker Daltonics Ion Trap HCT Ultra for metabolic studies. A gradient from 2% to 100% (Water, MeOH, 5 mM Ammonium Acetate) over 2 min (stability) or 12 min (metabolism) in a C18 BEH (dimensions 1 by 50 mm for stability and 2.1 by 100 mm for metabolism, 1.7 µm column, 45 °C temperature, flow rate 0.5 mL/min) was used. For stability studies, the detection was performed in MRM (ESI positive, Q1/Q3 330.16/152.00, Cone Voltage 45 V; Extractor 5 V; Capillary 3.4 kV), while for metabolism studies, analysis was performed in Auto MS/MS mode (ESI positive; Capillary 109 V; Dry Temp 350 °C; Nebulizer 30 psi; Dry gas 10 L/min; HV capillary 500 V; Mass Accu time 500 µs; Mass range MS scan 100–600 amu, MS/MS 50–450 amu).
(§2) For stability and metabolism studies, test compounds were dissolved in DMSO, diluted at the final concentration of 1 µM, and pre-incubated in duplicate for 10 min at 37 °C in potassium phosphate buffer, pH 7.4, 3 mM MgCl2, with rat, mouse, and human hepatic microsomes (Xenotech Europe, Pfungstadt, Germany) at the final concentration of 0.5 mg/mL. The reaction was then started by adding the cofactor mixture of NADP, Glc6P, and G6P-DH, in the presence of UDPGA 1 mM in human microsomes to promote glucuronide formation. Acetonitrile (with verapamil as internal standard) was added to the samples at the times time 0 and 30 min to stop the reaction. Samples were then centrifuged and the supernatants analysed and quantified by LC-MS/MS. Reference compounds of known metabolic stability, 7-ethoxycoumarin (7-EC) and propranolol, were used as controls.
(§3) The percentage of the area of test compounds remaining after 30 min incubation was calculated in respect to the area of compounds at time = 0 min. […] Samples were re-analyzed by acquiring the daughter scan of the potential metabolites found during the full scan acquisition.

Series [2] is described as follows: Microsome stability and metabolism studies, human. The conditions noted are these: (−)-AM1 1 μM, at 30 min. On the set-up: key: +: Metabolic Products Detected In Vitro and In Vivo; ND: Not detectable. Type of series: in vitro ADME. Here is the method: (§4) Samples from the metabolic stability and metabolism studies were analyzed under the following conditions: UPLC interfaced with a Premiere XE triple Quadrupole Waters for stability studies, and Bruker Daltonics Ion Trap HCT Ultra for metabolic studies. A gradient from 2% to 100% (Water, MeOH, 5 mM Ammonium Acetate) over 2 min (stability) or 12 min (metabolism) in a C18 BEH (dimensions 1 by 50 mm for stability and 2.1 by 100 mm for metabolism, 1.7 µm column, 45 °C temperature, flow rate 0.5 mL/min) was used. […]
For stability and metabolism studies, test compounds were dissolved in DMSO, diluted at the final concentration of 1 µM, and pre-incubated in duplicate for 10 min at 37 °C in potassium phosphate buffer, pH 7.4, 3 mM MgCl2, with rat, mouse, and human hepatic microsomes (Xenotech Europe, Pfungstadt, Germany) at the final concentration of 0.5 mg/mL. […] Samples were then centrifuged and the supernatants analysed and quantified by LC-MS/MS. […]
as §3

A short description of series [3]: Microsome stability and metabolism studies, mouse. The series is classed as in vitro ADME. More on the design: key: +: Metabolic Products Detected In Vitro and In Vivo; ND: Not detectable. The conditions noted are these: (−)-AM1 1 μM, at 30 min. Here is the method: as §1, §2, §3
Series [4] in a line: Metabolites in mouse plasma after oral treatment. Type of series: in vivo. The conditions noted are these: after 50 mg/kg (−)-AM1 oral gavage, at 120 min. More on the design: key: +: Metabolic Products Detected In Vitro and In Vivo; ND: Not detectable. As for the experimental part: A representative chromatogram in the mouse and the MS spectra are shown in Figure S1 (Supplementary Materials), while the proposed structures of metabolites in all the species, together with the retention times, are shown in Table 3. In the same table, the metabolites found in mouse plasma after 50 mg/kg oral treatment are included. The retention times and [M + H]^+ of the metabolites are the same for all three species.
The parent [M + H]^+ = 330 and the metabolites [M + H]^+ = 346 and [M + H]^+ = 344 were also detected in the mouse plasma samples collected after oral treatment of CD1 mice with 50 mg/kg of (−)-AM1 (Figure S4).
as §4

Another series concerns P. falciparum D10 (CQ-S). More on the design: method as in PMID 22901673. The conditions noted are these: 72 h incubation, pLDH method, mean of 3 experiments; data already published; cited from earlier work.
Series [5] has as its system P. falciparum TM91C235 (multidrug-resistant). Put plainly: In vitro chemosensitivity assay (pLDH), TM91C235 strain. The series is classed as cell-based. The conditions noted are these: Plasmodium falciparum, 72 h, read-out: P. falciparum IC50, TM91C235.
For the next series, the system named is P. falciparum W-2 (CQ-R). More on the design: method as in PMID 22901673. The conditions noted are these: 72 h incubation, pLDH method, mean of 3 experiments; data already published; cited from earlier work.
In series [6] the test system is P. falciparum FCR1 (CQ-R). Kind of series: In vitro chemosensitivity assay (pLDH), FCR1 strain. The series is classed as cell-based. The conditions noted are these: Plasmodium falciparum, 72 h, read-out: P. falciparum IC50, FCR1.
The test system of the next series is P. vivax field isolates. Kind of series: In vitro assay against P. vivax field isolates. Type of series: cell-based. The conditions noted are these: Plasmodium vivax, read-out: P. vivax IC50, field isolates. An excerpt: Ten P. vivax isolates were collected from June to July 2010 from malaria patients attending the Shoklo Malaria Research Unit (SMRU) clinics, Mae Sot region of the Tak Province in north-western Thailand under the ethical guidelines in the approved protocol OXTREC 027-05 (Centre for Clinical Vaccinology and Tropical Medicine, University of Oxford, Oxford, UK). These samples were collected from patients with no prior antimalarial therapy and with microscopically confirmed P. vivax. After written consent, blood samples were collected by venepuncture in 5 mL volume lithium heparinized tubes, which were then transported to the laboratory at SMRU within 5 h of collection. The ten isolates were chosen for testing because the majority (>80%) of the parasites were at the mid trophozoite stage (around 20 h post invasion) and no schizonts were detected.

Series [7] in a line: Maximum tolerated dose in CD1 mice. The conditions noted are these: CD1, mouse, in vivo, ip.
The subject of series [8] is P. falciparum FCR3 (CQ-R). Put plainly: In vitro chemosensitivity assay (pLDH), FCR3 strain. The series is classed as cell-based. The conditions noted are these: Plasmodium falciparum, FCR3, 72 h, read-out: P. falciparum IC50, FCR3.

Regarding `O=C(Nc1ccnc2cc(Cl)ccc12)[C@@H]1CCCN2CCCC[C@H]12` [C00002], in series [1], the “Metabolic products detected, in vitro microsomes, rat” value was “+”. For the same molecule, the “Metabolic products detected, in vitro microsomes, human” value in series [2] is on record as “+”. In addition, the “Metabolic products detected, in vitro microsomes, mouse” value in [3] was “+”.
As for `[O-][NH+](CC1CCCN2CCCCC12)c1ccnc2cc(Cl)ccc12` (centres unmarked) [C00003], in [4], the “Metabolic products detected, in vivo plasma levels, mouse” value is listed as “+”. For the same molecule, the “Metabolic products detected, in vitro microsomes, rat” value in [1] was “+”. In addition, in series [2], the “Metabolic products detected, in vitro microsomes, human” value is listed as “+”. In addition, the “Metabolic products detected, in vitro microsomes, mouse” value in series [3] is “+”.
The IC50 is the concentration that gives 50% inhibition. In general, MTD refers to the highest dose tested that stayed within the study's limit of toxicity. Turning to `CCN(CC)CCCC(C)Nc1ccnc2cc(Cl)ccc12` (centres unmarked) [CQ, chloroquine, reference compound], the 50% inhibitory concentration (IC50) was 23.7 nM in the series with P. falciparum D10 (CQ-S); 199 nM in [5]; 438 nM with P. falciparum W-2 (CQ-R); 182 nM in series [6]; 86.7 nM with P. vivax field isolates; 113 nM in series [8]. In series [7], the MTD turned out to be 50 mg/kg.
